US5484911A, “Nucleoside 5'-diphosphate conjugates of ether lipids” (Health Research, Inc., priority 1993, dated 1996)
Read-outs that look alike come from different tables or passages of the source.

How the values were obtained:
[1] = Cytotoxicity to uninfected CEM cells (toxicity control of the anti-HIV assay); assay type: cell-based; conditions: human
From the text: (§1) FIG. 3. Anti-HIV activity of AZTDP-DL-PTBA from the National Cancer Institute Developmental Therapeutics Program In-Vitro Testing Results; NSC 648540-S/1; Plate 5440; Lab 9N; SSPL:129N; Primary Screen Assay; Test Date, Jan. 21, 1992; Solubility Ind.: 1; Report Date, Apr. 27, 1992; Cell Line, CEM-IW; Solvent: Saline<0.9% (MEDIA).
as §1, with “4.” for “3.”, “AZddUDP-DL-PTBA” for “AZTDP-DL-PTBA”, “NSC: 648541-T/1;” for “NSC 648540-S/1;”, “5466;” for “5440;”, “SSPL: 129N;” for “SSPL:129N;”, “Line:” for “Line,”
(§2) FIG. 5. Anti-HIV activity of ddCDP-DL-PTBA from the National Cancer Institute Developmental Therapeutic Program In-Vitro Testing Results; NSC: D- 652872-A/1; Plate 24; Lab 9N; Primary Screen Assay; Test Date, Jul. 23, 1992; Solubility Ind.: 1; Report Date: Aug. 7, 1992; Cell Line: CEM-IW; Solvent: Saline<0.9% (MEDIA).
(§3) FIG. 6. Anti-HIV activity of AZTDP-DL-PMA from the National Cancer Institute Developmental Therapeutics Program In-Vitro Testing Results; NSC: D- 652873-C/1; Plate 24; Lab 9N; SSPL: 129N; Primary Screen Assay; Test Date, Jul. 23, 1992; Solubility Ind.: 1; Report Date, Sep. 11, 1992; Cell Line: CEM-IW; Solvent: Saline<0.9% (MEDIA).
(§4) The procedure is designed to detect agents acting at any stage of the virus reproductive cycle (Weislow, et al., J. Natl. Cancer Inst. 81, 577, 1989). The assay basically involves the killing of T4 lymphocytes by HIV. Small amounts of HIV are added to cells, and a complete cycle of virus reproduction is necessary to obtain the required cell killing. Agents that interact with virions, cells, or virus gene-products to interfere with viral activities will protect cells from cytolysis. Compounds that degenerate or are rapidly metabolized in the culture conditions may not show activity in this screen. All tests are compared with at least one positive (e.g., AZT-treated) control done at the same time under identical conditions.
(§5) Compound was dissolved in DMSO then diluted 1:100 in cell culture medium before preparing serial half-log10 dilutions. T4 lymphocytes (CEM cell line) were added and after a brief interval HIV-1 was added, resulting in a 1:200 final dilution of the compound. Uninfected cells with the compound served as a toxicity control, and infected and uninfected without the compound served as basic controls. Cultures were incubated at 37° C. in a 5% CO2 atmosphere for 6 days. The tetrazolium salt, XTT, was added to the wells, and cultures were incubated to allow formazan color development by viable cells. Individual wells were analyzed spectrophotometrically to quantitate formazan production, and in addition were viewed microscopically for detection of viable cells and confirmation of protective activity. Drug-treated virus-infected cells were compared with drug-treated noninfected cells and with other appropriate controls (untreated infected and untreated noninfected cells, drug-containing wells without cells, etc.) on the same plate. Data were reviewed in comparison with other tests done at the same time and a determination about activity was made.

L1210 lymphoid leukemia = assay: In vivo test against i.p. implanted L1210 lymphoid leukemia in DBA/2J mice
Procedure: AZTDP-DL-PTBA was also tested for in vivo cytotoxicity against i.p. implanted L1210 lymphoid leukemia (10^6 cells) in DBA/2J mice.

Solubility in water = assay type: physicochemical
Procedure: Solubility of AZTDP-DL-PTBA in water is only 0.58 mM. Thus, the compounds in the present invention were formulated in a micellar solution by sonication for the biological testings such as anti-HIV screenings. The compound was suspended in sterile water and then sonicated using a Branson Sonifier Cell Disruptor 200 at control 2-3 for 5 min (temp 20°-60° C.). The solution was sterile-filtered through a 0.22 μm membrane filter into a sterile receiving container under a laminar flow cabinet. The compound was existed as micelles and the micellar solution was stored in a refrigerator.

in vivo = assay: in vivo; set-up: species or system Female NIH-Swiss mice; conditions: mouse, ip, 394 mg/kg
Procedure: FIG. 7. Mouse serum concentration of AZT following administration of AZT or AZTDP-DL-PTBA Female NIH-Swiss mice weighing 25-30 g were administered i.p. with AZT (100 mg/kg) or AZTDP-DL-PTBA (394 mg/kg, equivalent to 100 mg/kg AZT). Three mice were sacrificed at the designated time (up to 24 hr) and AZT in the serum was analyzed by a HPLC method.
Female NIH-Swiss mice weighing 25-30 g were administered intraperitoneally (i.p.) with 394 mg/kg of AZTDP-DL-PTBA (equivalent to 100 mg/kg AZT). Three mice were sacrificed at the designated time (up to 24 hours) and AZT in the serum was analyzed by an HPLC method. […] The intact conjugate level in the serum was unable to be checked by the HPLC method.

HIV-1 = assay: microbe, parasite or virus in culture; assay type: cell-based
From the text: as §1
as §1, with “4.” for “3.”, “AZddUDP-DL-PTBA” for “AZTDP-DL-PTBA”, “NSC: 648541-T/1;” for “NSC 648540-S/1;”, “5466;” for “5440;”, “SSPL: 129N;” for “SSPL:129N;”, “Line:” for “Line,”
as §2, §3
Anti-HIV evaluation for the compounds was performed at the National Cancer Institute, National Institute of Health and is presented in FIGS. 3-6.
as §4, §5

With `CCCCCCCCCCCCCCCCCCSCC(COP(=O)(O)OP(=O)(O)OC[C@H]1O[C@@H](n2cc(C)c(=O)[nH]c2=O)C[C@@H]1N=[N+]=[N-])OC(=O)CCCCCCCCCCCCCCC` (mixture of isomers) [AZTDP-DL-PTBA] the MCC ([1]; cem cells, read-out: concentration at which the compound started to show the cytotoxicity) was 100 µM, the viability at 180 µM ([1]; uninfected cem cells, dose 1.80 × 10^-4 Molar (Tables 1, 2), read-out: UNINFECTED RESPONSE Percent of Control) was 0.9% and the viability at 18 µM ([1]; uninfected cem cells, dose 1.80 × 10^-5 Molar (Tables 1, 2), read-out: UNINFECTED RESPONSE Percent of Control) was 106%. The viability at 1.8 µM ([1]; uninfected cem cells, dose 1.80 × 10^-6 Molar (Tables 1, 2), read-out: UNINFECTED RESPONSE Percent of Control) was 98.7%, the viability at 580 µM ([1]; uninfected cem cells, dose 5.80 × 10^-4 Molar (Tables 1, 2), read-out: UNINFECTED RESPONSE Percent of Control) was -0.54% and the viability at 58 µM ([1]; uninfected cem cells, dose 5.80 × 10^-5 Molar (Tables 1, 2), read-out: UNINFECTED RESPONSE Percent of Control) was 113%. For the same molecule, the viability at 5.8 µM ([1]; uninfected cem cells, dose 5.80 × 10^-6 Molar (Tables 1, 2), read-out: UNINFECTED RESPONSE Percent of Control) was 95.9%, the viability at 0.58 µM ([1]; uninfected cem cells, dose 5.80 × 10^-7 Molar (Tables 1, 2), read-out: UNINFECTED RESPONSE Percent of Control) was 97% and the CC50 ([1]; CEM cells, read-out: cytotoxicity (IC50)) was 110 µM. The CC50 at 144 h ([1]; uninfected CEM-IW cells, 6 days, XTT, Tables 1-4, read-out: 1C50(Molar) (cytotoxicity)) was 110 µM, the “% ILS (increase in life span)” value (L1210 lymphoid leukemia; 100-300 mg (95-285 μmole)/kg, L1210 10^6 cells i.p.) was 0% and the Toxicity (L1210 lymphoid leukemia; 100-300 mg/kg, leukemic mice) was “Toxicity as reflected in weight loss was observed”. The solubility (Solubility in water) was 580 µM, the half-life (in vivo) was 7.85 h and the “concentration at which protection was lost” value (HIV-1; HIV-infected CEM cells) was 180 µM. It also gave a viability at 0.58 µM (HIV-1; Human immunodeficiency virus 1, CCRF-CEM, at as low as 5.80×10^-7 M, read-out: protected HIV-infected CEM cells) of 80%, a viability at 180 µM (HIV-1; Human immunodeficiency virus 1, CCRF-CEM, dose 1.80 × 10^-4 Molar (Tables 1, 2), read-out: INFECTED RESPONSE Percent of Control) of 1.53% and a viability at 18 µM (HIV-1; Human immunodeficiency virus 1, CCRF-CEM, dose 1.80 × 10^-5 Molar (Tables 1, 2), read-out: INFECTED RESPONSE Percent of Control) of 110%. It also gave a viability at 1.8 µM (HIV-1; Human immunodeficiency virus 1, CCRF-CEM, dose 1.80 × 10^-6 Molar (Tables 1, 2), read-out: INFECTED RESPONSE Percent of Control) of 95.6%, a viability at 580 µM (HIV-1; Human immunodeficiency virus 1, CCRF-CEM, dose 5.80 × 10^-4 Molar (Tables 1, 2), read-out: INFECTED RESPONSE Percent of Control) of 0.57% and a viability at 58 µM (HIV-1; Human immunodeficiency virus 1, CCRF-CEM, dose 5.80 × 10^-5 Molar (Tables 1, 2), read-out: INFECTED RESPONSE Percent of Control) of 122%. For the same molecule, the viability at 5.8 µM (HIV-1; Human immunodeficiency virus 1, CCRF-CEM, dose 5.80 × 10^-6 Molar (Tables 1, 2), read-out: INFECTED RESPONSE Percent of Control) was 98.1%, the viability at 0.58 µM (HIV-1; Human immunodeficiency virus 1, CCRF-CEM, dose 5.80 × 10^-7 Molar (Tables 1, 2), read-out: INFECTED RESPONSE Percent of Control) was 81.6% and the Conclusion (HIV-1; NCI screen conclusion, Tables 1-4) was “CONFIRMED ACTIVE”. The “conclusion / reported as anti-HIV drug” value (HIV-1; NCI screening results) was “active” and the “in vitro anti-HIV activity” value (HIV-1; result in words) was “strong in vitro anti-HIV activity”.
